Test results: patent US9216999B2, “Substituted pyrrolo[2,3-h][1,6]naphthyridines and compositions thereof as JAK inhibitors” (priority 2011, dated 2015)

Assays:
Assay type in all cases: biochemical
Settings in all cases: ATP 100 μM
JAK3 = JAK3 (Homo sapiens (Human), UniProt P52333); test: Enzyme assay (Assay Example^a 1), JAK3
JAK1 = JAK1 (Homo sapiens (Human), UniProt P23458); test: Enzyme assay (Assay Example^a 1), JAK1
Tyk2 = Tyk2 (Homo sapiens (Human), UniProt P29597); test: Enzyme assay (Assay Example^a 1), Tyk2
Chain of Tyk2 (P29597 whole entry): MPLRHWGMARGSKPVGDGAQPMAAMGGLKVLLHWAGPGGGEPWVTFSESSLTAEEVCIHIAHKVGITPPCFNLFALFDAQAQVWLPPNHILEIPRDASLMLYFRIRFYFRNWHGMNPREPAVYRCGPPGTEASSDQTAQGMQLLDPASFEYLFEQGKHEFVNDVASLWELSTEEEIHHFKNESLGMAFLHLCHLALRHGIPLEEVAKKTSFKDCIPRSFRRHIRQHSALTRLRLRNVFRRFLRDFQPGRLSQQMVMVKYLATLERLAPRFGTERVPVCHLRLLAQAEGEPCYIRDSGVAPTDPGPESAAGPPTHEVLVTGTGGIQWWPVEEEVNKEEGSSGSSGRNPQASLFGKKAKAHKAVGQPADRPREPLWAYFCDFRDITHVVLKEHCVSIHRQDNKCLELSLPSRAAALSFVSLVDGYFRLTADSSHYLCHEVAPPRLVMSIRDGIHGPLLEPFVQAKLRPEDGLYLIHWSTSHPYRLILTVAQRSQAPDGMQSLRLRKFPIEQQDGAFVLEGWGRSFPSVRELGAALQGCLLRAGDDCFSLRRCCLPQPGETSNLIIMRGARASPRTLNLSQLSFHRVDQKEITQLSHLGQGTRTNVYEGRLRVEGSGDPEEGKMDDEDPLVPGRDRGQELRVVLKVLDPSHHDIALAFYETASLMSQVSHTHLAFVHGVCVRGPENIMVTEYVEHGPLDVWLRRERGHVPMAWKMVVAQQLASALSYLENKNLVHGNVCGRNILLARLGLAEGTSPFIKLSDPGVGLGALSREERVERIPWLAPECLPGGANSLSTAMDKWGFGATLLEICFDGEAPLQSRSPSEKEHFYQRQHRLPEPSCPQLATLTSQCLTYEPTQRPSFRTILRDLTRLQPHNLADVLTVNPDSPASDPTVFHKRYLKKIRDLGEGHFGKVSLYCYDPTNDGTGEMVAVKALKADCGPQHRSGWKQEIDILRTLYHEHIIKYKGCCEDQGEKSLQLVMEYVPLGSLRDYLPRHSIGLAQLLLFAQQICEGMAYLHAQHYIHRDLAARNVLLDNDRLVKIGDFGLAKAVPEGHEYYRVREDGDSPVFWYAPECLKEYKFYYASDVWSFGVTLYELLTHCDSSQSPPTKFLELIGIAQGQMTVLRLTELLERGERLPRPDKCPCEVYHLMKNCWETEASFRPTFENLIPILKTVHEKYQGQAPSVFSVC

JAK2 = JAK2 (Homo sapiens (Human), UniProt O60674); test: Enzyme assay (Assay Example^a 1), JAK2

Chain of JAK3 (P52333 whole entry): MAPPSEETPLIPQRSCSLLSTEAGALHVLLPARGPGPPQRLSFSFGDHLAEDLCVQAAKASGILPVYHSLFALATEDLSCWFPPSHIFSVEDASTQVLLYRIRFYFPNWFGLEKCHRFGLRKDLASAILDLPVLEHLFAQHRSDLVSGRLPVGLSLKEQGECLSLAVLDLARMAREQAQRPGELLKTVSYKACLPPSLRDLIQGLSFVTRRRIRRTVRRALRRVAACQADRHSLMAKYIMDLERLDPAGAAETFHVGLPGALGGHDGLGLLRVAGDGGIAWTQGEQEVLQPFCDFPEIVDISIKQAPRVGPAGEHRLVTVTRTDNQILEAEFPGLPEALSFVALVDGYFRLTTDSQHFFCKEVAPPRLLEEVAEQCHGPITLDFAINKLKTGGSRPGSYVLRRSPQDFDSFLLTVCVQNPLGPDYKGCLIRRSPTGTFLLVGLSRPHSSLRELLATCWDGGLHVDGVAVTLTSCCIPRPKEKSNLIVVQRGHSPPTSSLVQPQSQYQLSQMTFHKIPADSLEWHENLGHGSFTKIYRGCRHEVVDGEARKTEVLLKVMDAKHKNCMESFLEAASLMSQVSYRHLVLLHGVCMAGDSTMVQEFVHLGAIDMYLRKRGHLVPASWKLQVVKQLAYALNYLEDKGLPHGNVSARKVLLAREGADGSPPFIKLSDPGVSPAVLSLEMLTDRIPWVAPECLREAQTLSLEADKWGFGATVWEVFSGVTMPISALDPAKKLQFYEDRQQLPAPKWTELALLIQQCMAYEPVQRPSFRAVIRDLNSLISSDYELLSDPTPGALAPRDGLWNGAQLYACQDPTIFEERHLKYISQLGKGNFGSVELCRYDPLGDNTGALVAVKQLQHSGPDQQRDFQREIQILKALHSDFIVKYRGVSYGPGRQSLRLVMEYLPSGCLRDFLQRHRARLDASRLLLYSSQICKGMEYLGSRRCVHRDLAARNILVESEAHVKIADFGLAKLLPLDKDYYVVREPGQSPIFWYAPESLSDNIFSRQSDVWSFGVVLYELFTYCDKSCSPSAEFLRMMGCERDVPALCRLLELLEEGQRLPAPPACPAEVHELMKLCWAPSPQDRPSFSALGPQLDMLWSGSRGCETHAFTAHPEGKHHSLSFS

Structure (SMILES) | IC50 (JAK3) | IC50 (JAK1) | IC50 (Tyk2) | IC50 (JAK2)
Brc1csc(CN2CCC(c3nnn4cnc5[nH]ccc5c34)CC2)c1 [compound 237, 1-{1-[(4-bromothiophen-2-yl)methyl]piperidin-4-yl}-7H-pyrrolo[3,2-e][1,2,3]triazolo[1,5-c]pyrimidine] | 0.41 µM | 0.0015 µM | > 1 µM | 0.01 µM
Brc1ccc(CN2CCC(c3nnn4cnc5[nH]ccc5c34)CC2)s1 [compound 238, 1-{1-[(5-bromothiophen-2-yl)methyl]piperidin-4-yl}-7H-pyrrolo[3,2-e][1,2,3]triazolo[1,5-c]pyrimidine] | 0.055 µM | 0.00079 µM | 0.11 µM | 0.0046 µM
c1cc(CN2CCC(c3nnn4cnc5[nH]ccc5c34)CC2)ccn1 [compound 239, 1-[1-(pyridin-4-ylmethyl)piperidin-4-yl]-7H-pyrrolo[3,2-e][1,2,3]triazolo[1,5-c]pyrimidine] | 0.61 µM | 0.0081 µM | 0.65 µM | 0.035 µM
c1cc2c(ncn3nnc(C4CCN(Cc5cscn5)CC4)c23)[nH]1 [compound 240, 4-{[4-(7H-pyrrolo[3,2-e][1,2,3]triazolo[1,5-c]pyrimidin-1-yl)piperidin-1-yl]methyl}thiazole] | 0.6 µM | 0.039 µM | > 1 µM | 0.11 µM
N#Cc1ccc(CN2CCC(c3nnn4cnc5[nH]ccc5c34)CC2)cc1C#N [compound 242, 4-{[4-(7H-pyrrolo[3,2-e][1,2,3]triazolo[1,5-c]pyrimidin-1-yl)piperidin-1-yl]methyl}phthalonitrile] | 0.96 µM | 0.0065 µM | > 1 µM | 0.052 µM
N#Cc1cc(CN2CCC(c3nnn4cnc5[nH]ccc5c34)CC2)ccc1C(F)(F)F [compound 243, 5-{[4-(7H-pyrrolo[3,2-e][1,2,3]triazolo[1,5-c]pyrimidin-1-yl)piperidin-1-yl]methyl}-2-(trifluoromethyl)benzonitrile] | > 1 µM | 0.044 µM | > 1 µM | 0.29 µM
N#Cc1ccc(CN2CCC(c3nnn4cnc5[nH]ccc5c34)CC2)cc1C(F)(F)F [compound 244, 4-{[4-(7H-pyrrolo[3,2-e][1,2,3]triazolo[1,5-c]pyrimidin-1-yl)piperidin-1-yl]methyl}-2-(trifluoromethyl)benzonitrile] | 0.44 µM | 0.0054 µM | 0.79 µM | 0.038 µM
N#CCN1CCC(c2nnn3cnc4[nH]ccc4c23)CC1 [compound 246, 2-[4-(7H-pyrrolo[3,2-e][1,2,3]triazolo[1,5-c]pyrimidin-1-yl)piperidin-1-yl]acetonitrile] | 0.28 µM | 0.0053 µM | 0.14 µM | 0.019 µM
N#Cc1ccc(NC[C@H]2CC[C@H](c3nnn4cnc5[nH]ccc5c34)CC2)c2ccccc12 [compound 248, 4-({[trans-4-(7H-pyrrolo[3,2-e][1,2,3]triazolo[1,5-c]pyrimidin-1-yl)cyclohexyl]methyl}amino)-1-naphthonitrile] | > 1 µM | 0.041 µM | > 1 µM | 0.14 µM
Fc1ccc(NC[C@H]2CC[C@H](c3nnn4cnc5[nH]ccc5c34)CC2)cc1F [compound 249, N-{[trans-4-(7H-pyrrolo[3,2-e][1,2,3]triazolo[1,5-c]pyrimidin-1-yl)cyclohexyl]methyl}-3,4-difluoroaniline] | 0.49 µM | 0.017 µM | 0.86 µM | 0.056 µM
Fc1cc(NC[C@H]2CC[C@H](c3nnn4cnc5[nH]ccc5c34)CC2)cc(F)c1F [compound 250, N-{[trans-4-(7H-pyrrolo[3,2-e][1,2,3]triazolo[1,5-c]pyrimidin-1-yl)cyclohexyl]methyl}-3,4,5-trifluoroaniline] | > 1 µM | 0.031 µM | > 1 µM | 0.18 µM
Fc1ccc(NC[C@H]2CC[C@H](c3nnn4cnc5[nH]ccc5c34)CC2)cc1C(F)(F)F [compound 251, N-{[trans-4-(7H-pyrrolo[3,2-e][1,2,3]triazolo[1,5-c]pyrimidin-1-yl)cyclohexyl]methyl}-4-fluoro-3-(trifluoromethyl)aniline] | > 1 µM | 0.031 µM | > 1 µM | 0.2 µM
N#Cc1cc(NC[C@H]2CC[C@H](c3nnn4cnc5[nH]ccc5c34)CC2)ccc1F [compound 252, 5-({[trans-4-(7H-pyrrolo[3,2-e][1,2,3]triazolo[1,5-c]pyrimidin-1-yl)cyclohexyl]methyl}amino)-2-fluorobenzonitrile] | > 1 µM | 0.017 µM | > 1 µM | 0.06 µM
O=C1SCCC1NC[C@H]1CC[C@H](c2nnn3cnc4[nH]ccc4c23)CC1 (stereo partly drawn) [compound 253, 3-({[trans-4-(7H-pyrrolo[3,2-e][1,2,3]triazolo[1,5-c]pyrimidin-1-yl)cyclohexyl]methyl}amino)dihydrothiophen-2(3H)-one] | 0.14 µM | 0.0011 µM | 0.044 µM | 0.0066 µM
c1cc2c(ncn3nnc([C@H]4CC[C@H](CN5CCSC5)CC4)c23)[nH]1 [compound 254, 3-{[trans-4-(7H-pyrrolo[3,2-e][1,2,3]triazolo[1,5-c]pyrimidin-1-yl)cyclohexyl]methyl}thiazolidine] | 0.53 µM | 0.0071 µM | 0.16 µM | 0.024 µM
FC(F)CNC[C@H]1CC[C@H](c2nnn3cnc4[nH]ccc4c23)CC1 [compound 255, N-{[trans-4-(7H-pyrrolo[3,2-e][1,2,3]triazolo[1,5-c]pyrimidin-1-yl)cyclohexyl]methyl}-2,2-difluoroethanamine] | 0.24 µM | 0.0025 µM | 0.14 µM | 0.015 µM
FC(F)(F)CCNC[C@H]1CC[C@H](c2nnn3cnc4[nH]ccc4c23)CC1 [compound 256, N-{[trans-4-(7H-pyrrolo[3,2-e][1,2,3]triazolo[1,5-c]pyrimidin-1-yl)cyclohexyl]methyl}-3,3,3-trifluoropropan-1-amine] | 0.99 µM | 0.015 µM | 0.27 µM | 0.062 µM
OC1CN(C[C@H]2CC[C@H](c3nnn4cnc5[nH]ccc5c34)CC2)C1 [compound 257, 1-{[trans-4-(7H-pyrrolo[3,2-e][1,2,3]triazolo[1,5-c]pyrimidin-1-yl)cyclohexyl]methyl}azetidin-3-ol] | 0.49 µM | 0.0017 µM | 0.049 µM | 0.016 µM
FC(F)(F)C1CCN(C[C@H]2CC[C@H](c3nnn4cnc5[nH]ccc5c34)CC2)CC1 [compound 258, 1-(trans-4-{[4-(trifluoromethyl)piperidin-1-yl]methyl}cyclohexyl)-7H-pyrrolo[3,2-e][1,2,3]triazolo[1,5-c]pyrimidine] | > 1 µM | 0.012 µM | 0.74 µM | 0.081 µM
N#CCNC[C@H]1CC[C@H](c2nnn3cnc4[nH]ccc4c23)CC1 [compound 259, 2-({[trans-4-(7H-pyrrolo[3,2-e][1,2,3]triazolo[1,5-c]pyrimidin-1-yl)cyclohexyl]methyl}amino)acetonitrile] | 0.27 µM | 0.0021 µM | 0.037 µM | 0.0081 µM
